From patent US20260001928A1 (CORTERIA PHARMACEUTICALS, priority 2022, published 2026) come the findings set out here.

Broadly, the EC50 is the concentration needed to bring the measured effect to its halfway point. Low values mean higher potency in that assay, high ones lower potency in that assay.

*1 amine or outer side, *2 acyl side, *3 side chain or, on linkers, in order; H or OH if unused. Where a SMILES comes first, the peptide text is derived from it. Side-chain parts run from the residue outwards. [ ]: non-standard residue; d: D form. The star is where a group is joined. C18 diacid = O=C(O)CCCCCCCCCCCCCCCCC(=O)*; C16 diacid = O=C(O)CCCCCCCCCCCCCCC(=O)*; γGlu = O=C(O)[C@H](CCC(=O)[*:2])N[*:1]; NMeI = CC[C@H](C)[C@H](NC)C(=O)O; αMeL = CC(C)C[C@](C)(N)C(=O)O; Api = NC1(C(=O)O)CCNCC1; Pentanoyl = CCCCC(=O)*; AEEA = NCCOCCOCC(=O)O; Aib = CC(C)(N)C(=O)O Some results are limits rather than exact numbers.

In one assay the target is T1, human CRF2a receptor (Homo sapiens, UniProt Q13324).
T1 construct: expressed in transfected cells; host or cells: TeloHEAC cells
T1 sequence (Q13324 1-411): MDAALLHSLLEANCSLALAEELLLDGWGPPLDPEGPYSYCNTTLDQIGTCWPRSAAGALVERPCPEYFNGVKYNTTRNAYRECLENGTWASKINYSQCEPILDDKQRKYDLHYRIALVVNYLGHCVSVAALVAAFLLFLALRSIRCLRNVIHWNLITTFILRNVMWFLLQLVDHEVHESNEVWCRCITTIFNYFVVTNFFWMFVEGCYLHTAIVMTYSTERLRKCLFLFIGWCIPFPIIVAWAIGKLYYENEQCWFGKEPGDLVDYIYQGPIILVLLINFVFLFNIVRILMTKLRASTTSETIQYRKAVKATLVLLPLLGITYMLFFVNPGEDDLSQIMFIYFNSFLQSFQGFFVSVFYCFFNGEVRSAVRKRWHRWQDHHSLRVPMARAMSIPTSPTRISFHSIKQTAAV
The assay can be described thus: Activity at human CRF2a receptor, cAMP functional assay in TeloHEAC cells. Type of assay: cell-based. The following applies: TeloHEAC cells stably expressing human CRF2a receptor, relative to urocortin 2 (100 nM = 100%). In short, it runs like this: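 cAMP accumulation was measured by HTRF 665/620 nm ratio after 30 min at 37° C compound exposure (16 twofold dilutions) of CRF2a-expressing TeloHEAC cells, 10000/well, in HEPES-buffered HBSS plus IBMX. Activity was normalised to urocortin 2 at 100 nM (100%), and EC50 was the concentration giving half-maximal activation.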

The target in a further assay is T2, CFR1R receptor (Homo sapiens, UniProt P34998).
T2 construct: host or cells: CHO-K1 (clone 2)
T2 sequence (P34998 24-415): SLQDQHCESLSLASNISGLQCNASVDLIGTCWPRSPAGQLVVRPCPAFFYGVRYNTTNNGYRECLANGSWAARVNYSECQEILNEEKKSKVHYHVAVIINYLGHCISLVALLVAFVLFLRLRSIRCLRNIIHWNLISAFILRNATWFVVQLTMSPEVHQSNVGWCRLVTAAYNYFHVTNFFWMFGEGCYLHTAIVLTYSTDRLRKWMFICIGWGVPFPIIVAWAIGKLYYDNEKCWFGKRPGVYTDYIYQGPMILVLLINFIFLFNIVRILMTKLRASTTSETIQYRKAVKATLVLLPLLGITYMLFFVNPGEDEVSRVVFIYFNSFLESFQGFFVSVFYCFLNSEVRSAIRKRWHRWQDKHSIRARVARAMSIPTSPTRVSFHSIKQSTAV
The experiment in a line: Activity at anti-target CFR1R receptor, cAMP assay in CRF1R-overexpression CHO-K1 cells. Type of assay: cell-based. As to conditions: 100% = Sauvagine at 100 nM; for EC50: cAMP. The method in brief: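 Signal is normalised to 100 nM Sauvagine, taken as 100% activation, in clone 2 cells plated at a final 4000 cells/well from frozen stocks.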
On the technique in general: cAMP levels reflect the balance of adenylyl cyclase and phosphodiesterase activity.

For `CC[C@H](C)[C@H](NC)C(=O)N[C@H](C(=O)N[C@@H](CC(C)C)C(=O)N[C@@H](CO)C(=O)N[C@@H](CC(C)C)C(=O)N[C@@H](CC(=O)O)C(=O)N[C@@H](C(=O)N1CCC[C@H]1C(=O)N[C@H](C(=O)N[C@@H](CCCCN)C(=O)N[C@@H](CC(C)C)C(=O)N[C@@H](CCCCNC(=O)COCCOCCNC(=O)COCCOCCNC(=O)CC[C@H](NC(=O)CCCCCCCCCCCCCCCCC(=O)O)C(=O)O)C(=O)N[C@@H](CCCCN)C(=O)N[C@H](C(=O)N[C@@H](CC(C)C)C(=O)N[C@@H](CC(C)C)C(=O)N[C@@H](CCC(=O)O)C(=O)N[C@@H](CCC(N)=O)C(=O)N[C@@H](CCC(=O)O)C(=O)N[C@@H](CCCCN)C(=O)N[C@@H](CCC(N)=O)C(=O)N[C@@H](CCCCN)C(=O)N[C@@H](CCCCN)C(=O)N[C@@H](CCC(N)=O)C(=O)N[C@@H](CCCNC(=N)N)C(=O)N[C@@H](CCC(=O)O)C(=O)N[C@@H](CCC(N)=O)C(=O)N[C@@H](C)C(=O)N[C@@H](CCC(=O)O)C(=O)N[C@H](C(=O)N[C@@H](CC(N)=O)C(=O)N[C@@H](CCC(=O)O)C(=O)N[C@@H](CCC(N)=O)C(=O)N[C@H](C(=O)N[C@@H](CC(C)C)C(=O)N[C@@H](C)C(=O)N[C@@H](CCC(N)=O)C(=O)N[C@H](C(N)=O)C(C)C)[C@@H](C)CC)[C@@H](C)O)[C@@H](C)CC)[C@@H](C)CC)C(C)C)C(C)C` [compound 116] (H-[NMeI]VLSLD[dV]PIKLK([AEEA-AEEA-γGlu-C18 diacid])KILLEQEKQKKQREQAETNEQILAQV-NH2), at human CRF2a receptor, the 50% effective concentration (EC50) turned out to be 0.37 nM. Further, at CFR1R receptor, the “Emax (% I)” value is reported as 0 % I and the EC50 is > 250 nM.

Turning to `CC[C@H](C)[C@H](NC(C)=O)C(=O)N[C@H](C(=O)N[C@@H](CC(C)C)C(=O)N[C@@H](CO)C(=O)N[C@@H](CC(C)C)C(=O)N[C@@H](CC(=O)O)C(=O)N[C@@H](C(=O)N1CCC[C@H]1C(=O)N[C@H](C(=O)N[C@@H](CCCCN)C(=O)N[C@@](C)(CC(C)C)C(=O)N[C@@H](CCCCNC(=O)CC[C@H](NC(=O)CCCCCCCCCCCCCCC(=O)O)C(=O)O)C(=O)N[C@@H](CCCCN)C(=O)N[C@H](C(=O)N[C@@H](CC(C)C)C(=O)N[C@@H](CC(C)C)C(=O)N[C@@H](CCC(=O)O)C(=O)N[C@@H](CCC(N)=O)C(=O)N[C@@H](CCC(=O)O)C(=O)N[C@@H](CCCCN)C(=O)N[C@@H](CCC(N)=O)C(=O)N[C@@H](CCCCN)C(=O)N[C@@H](CCCCN)C(=O)N[C@@H](CCC(N)=O)C(=O)N[C@@H](CCCNC(=N)N)C(=O)N[C@@H](CCC(=O)O)C(=O)N[C@@H](CCC(N)=O)C(=O)N[C@@H](C)C(=O)N[C@@H](CCC(=O)O)C(=O)N[C@H](C(=O)N[C@@H](CC(N)=O)C(=O)N[C@H](C(=O)N[C@@H](CCC(N)=O)C(=O)N[C@H](C(=O)N[C@@H](CC(C)C)C(=O)N[C@@H](C)C(=O)N[C@@H](CCC(N)=O)C(=O)N[C@H](C(N)=O)C(C)C)[C@@H](C)CC)C(C)C)[C@@H](C)O)[C@@H](C)CC)[C@@H](C)CC)C(C)C)C(C)C` [compound 50] (Ac-IVLSLD[dV]PIK[αMeL]K([γGlu-C16 diacid])KILLEQEKQKKQREQAETNVQILAQV-NH2), the figures for the EC50 at human CRF2a receptor and on CFR1R receptor were 0.26 nM and > 250 nM, respectively. For the same compound, the “Emax (% I)” value on CFR1R receptor is on record as 9 % I.

For the compound `CC[C@H](C)[C@H](NC(C)=O)C(=O)N[C@H](C(=O)N[C@@H](CC(C)C)C(=O)N[C@@H](CO)C(=O)N[C@@H](CC(C)C)C(=O)N[C@@H](CC(=O)O)C(=O)N[C@@H](C(=O)N1CCC[C@H]1C(=O)N[C@H](C(=O)N[C@@H](CCCCN)C(=O)N[C@@H](CC(C)C)C(=O)N[C@@H](CCCCNC(=O)CC[C@H](NC(=O)CCCCCCCCCCCCCCC(=O)O)C(=O)O)C(=O)N[C@@H](CCCCN)C(=O)N[C@H](C(=O)N[C@@H](CC(C)C)C(=O)N[C@@H](CC(C)C)C(=O)N[C@@H](CCC(=O)O)C(=O)N[C@@H](CCC(N)=O)C(=O)N[C@@H](CCC(=O)O)C(=O)N[C@@H](CCCCN)C(=O)N[C@@H](CCC(N)=O)C(=O)N[C@@H](CCCCN)C(=O)N[C@@H](C)C(=O)N[C@@H](CCC(N)=O)C(=O)N[C@@H](CCCNC(=N)N)C(=O)N[C@@H](CCC(=O)O)C(=O)N[C@@H](CCC(N)=O)C(=O)N[C@@H](C)C(=O)N[C@@H](CCC(=O)O)C(=O)N[C@H](C(=O)N[C@@H](CC(N)=O)C(=O)NC1(C(=O)N[C@@H](CCC(N)=O)C(=O)N[C@H](C(=O)N[C@@H](CC(C)C)C(=O)N[C@@H](C)C(=O)N[C@@H](CCC(N)=O)C(=O)N[C@H](C(N)=O)C(C)C)[C@@H](C)CC)CCNCC1)[C@@H](C)O)[C@@H](C)CC)[C@@H](C)CC)C(C)C)C(C)C` [compound 152] (Ac-IVLSLD[dV]PIKLK([γGlu-C16 diacid])KILLEQEKQKAQREQAETN[Api]QILAQV-NH2), at human CRF2a receptor, a half-maximal response (EC50) required 0.51 nM. At CFR1R receptor, the “Emax (% I)” value is 25 % I and the EC50 was > 250 nM.

Compound `CC[C@H](C)[C@H](NC(C)=O)C(=O)N[C@H](C(=O)N[C@@H](CC(C)C)C(=O)N[C@@H](CO)C(=O)N[C@@H](CC(C)C)C(=O)N[C@@H](CC(=O)O)C(=O)N[C@@H](C(=O)N1CCC[C@H]1C(=O)N[C@H](C(=O)N[C@@H](CCCCN)C(=O)N[C@@H](CC(C)C)C(=O)N[C@@H](CCCCNC(=O)CC[C@H](NC(=O)CCCCCCCCCCCCCCC(=O)O)C(=O)O)C(=O)N[C@@H](CCCCN)C(=O)N[C@H](C(=O)N[C@@H](CC(C)C)C(=O)N[C@@H](CC(C)C)C(=O)N[C@@H](CCC(=O)O)C(=O)N[C@@H](CCC(N)=O)C(=O)N[C@@H](CCC(=O)O)C(=O)N[C@@H](CCCCN)C(=O)N[C@@H](CCC(N)=O)C(=O)N[C@@H](CCCCN)C(=O)NC(C)(C)C(=O)N[C@@H](CCC(N)=O)C(=O)N[C@@H](CCCNC(=N)N)C(=O)N[C@@H](CCC(=O)O)C(=O)N[C@@H](CCC(N)=O)C(=O)N[C@@H](C)C(=O)N[C@@H](CCC(=O)O)C(=O)N[C@H](C(=O)N[C@@H](CC(N)=O)C(=O)NC1(C(=O)N[C@@H](CCC(N)=O)C(=O)N[C@H](C(=O)N[C@@H](CC(C)C)C(=O)N[C@@H](C)C(=O)N[C@@H](CCC(N)=O)C(=O)N[C@H](C(N)=O)C(C)C)[C@@H](C)CC)CCNCC1)[C@@H](C)O)[C@@H](C)CC)[C@@H](C)CC)C(C)C)C(C)C` [compound 153] (Ac-IVLSLD[dV]PIKLK([γGlu-C16 diacid])KILLEQEKQK[Aib]QREQAETN[Api]QILAQV-NH2) gave an EC50 on human CRF2a receptor of 0.41 nM. Moreover, at CFR1R receptor, the “Emax (% I)” value came out at 22 % I and the concentration for a half-maximal effect (EC50) was > 250 nM.

In turn, `CCCCC(=O)N[C@H](C(=O)N[C@@H](CC(C)C)C(=O)N[C@@H](CO)C(=O)N[C@@H](CC(C)C)C(=O)N[C@@H](CC(=O)O)C(=O)N[C@@H](C(=O)N1CCC[C@H]1C(=O)N[C@H](C(=O)N[C@@H](CCCCN)C(=O)N[C@@](C)(CC(C)C)C(=O)N[C@@H](CCCCNC(=O)COCCOCCNC(=O)COCCOCCNC(=O)CC[C@H](NC(=O)CCCCCCCCCCCCCCCCC(=O)O)C(=O)O)C(=O)N[C@@H](CCCCN)C(=O)N[C@H](C(=O)N[C@@H](CC(C)C)C(=O)N[C@@H](CC(C)C)C(=O)N[C@@H](CCC(=O)O)C(=O)N[C@@H](CCC(N)=O)C(=O)N[C@@H](CCC(=O)O)C(=O)N[C@@H](CCCCN)C(=O)N[C@@H](CCC(N)=O)C(=O)N[C@@H](CCCCN)C(=O)N[C@@H](CCCCN)C(=O)N[C@@H](CCC(N)=O)C(=O)N[C@@H](CCCNC(=N)N)C(=O)N[C@@H](CCC(=O)O)C(=O)N[C@@H](CCC(N)=O)C(=O)N[C@@H](C)C(=O)N[C@@H](CCC(=O)O)C(=O)N[C@H](C(=O)N[C@@H](CC(N)=O)C(=O)NC(C)(C)C(=O)N[C@@H](CCC(N)=O)C(=O)N[C@H](C(=O)N[C@@H](CC(C)C)C(=O)N[C@@H](C)C(=O)N[C@@H](CCC(N)=O)C(=O)N[C@H](C(N)=O)C(C)C)[C@@H](C)CC)[C@@H](C)O)[C@@H](C)CC)[C@@H](C)CC)C(C)C)C(C)C` [compound 123] (Pentanoyl-VLSLD[dV]PIK[αMeL]K([AEEA-AEEA-γGlu-C18 diacid])KILLEQEKQKKQREQAETN[Aib]QILAQV-NH2) displayed an EC50 on human CRF2a receptor of 0.7 nM. Besides, at CFR1R receptor, the “Emax (% I)” value came to 14 % I and the EC50 is > 250 nM.
